Assay results taken from patent publication US6660263B2, “Oocydin and methods of use for protection of plants from Oomyocyte pathogens” (HMV Corporation, priority 2000, dated 2003).
≈ marks a conversion by molar mass, not a printed value. Where a SMILES comes first, the peptide text is derived from it. Bridges are numbered along the chain shown (N, C = ends). [ ]: non-standard residue; d: D form. The star is where a group is joined. Tetradecanoyl(3R-OH) = CCCCCCCCCCC[C@@H](O)CC(=O)*; Asp(3S-OH) = N[C@H](C(=O)O)[C@H](O)C(=O)O; Thr(4-Cl) = N[C@H](C(=O)O)[C@H](O)CCl; aThr = C[C@H](O)[C@H](N)C(=O)O; dDab = NCC[C@@H](N)C(=O)O; Dab = NCC[C@H](N)C(=O)O; Dhb = C/C=C(\N)C(=O)O

Assays:
[1] = tested on: Phytophthora cinnamomi; assay: MIC in PD broth, 24-well plate
[2] = tested on: Phytophthora parasitica; assay: MIC in PD broth, 24-well plate
[3] = tested on: P. ultimum; assay: Plate bioassay of fractions on PDA; format: cell-based, Pythium ultimum; details: contents of the single HPLC peak (retention time 19.7 min) against P. ultimum
Method: Bioassays. A simple plate bioassay test was used to detect bioactivity of various fractions in the purification of oocydin. Aliquots (10-20 μl) of sample were placed on a PDA plate, dried by placement under a hood having positive airflow, and then inoculated with 0.5×0.5 cm plugs of agar containing P. ultimum. The agar plugs were placed in each of the quadrants of the plate and then incubated for 36-48 hr at 23 C. Antioomycetous activity was apparent as a zone of growth inhibition.

[4] = tested on: Candida albicans
[5] = tested on: Histoplasma capsulatum
[6] = tested on: MCF-7 (breast cancer cell line); assay: Neutral red cytotoxicity assay; format: cell-based, human; details: 3 days of exposure, preliminary studies
Method: (§1) Oocydin A was tested also against human cancer cell lines BT-20, MCF 7(American Type Culture Collection, Bethesda, Md., USA) and compared with activity against a normal human mammary human cell line (cc2551 HMEC from Clonetics, San Diego, Calif., USA). These cells were exposed to serial dilutions of oocydin A. After 3 days of exposure, the cells were stained with neutral red and the absorbance measured at 540 nm. For non-adherent cells a modification of the staining protocol of Berent, S. L. et al., (1986) Nucleic Acid Res 14, 8997-9015 was used. The results were recorded as IC50 values.

[7] = tested on: Candida parapsilosis
[8] = tested on: Aspergillus fumigatus; format: cell-based
[9] = tested on: normal human mammary cell line (cc2551 HMEC); assay: Neutral red cytotoxicity assay; format: cell-based; details: 3 days of exposure, preliminary studies
Method: as §1

[10] = tested on: Alternaria tomato; format: cell-based
[11] = tested on: Verticillum dahliae; format: cell-based
[12] = tested on: Cryptococcus neoformans
[13] = tested on: Phytophthora spp.; assay: MIC in PD broth, 24-well plate; format: cell-based; details: the most sensitive Oomycetes
[14] = tested on: Sclerotinia sclerotiorum; format: cell-based
[15] = tested on: Phytophthora citrophora; assay: MIC in PD broth, 24-well plate; format: cell-based
[16] = tested on: Geotrichum candidum; format: cell-based
[17] = tested on: Rhizoctonia solani; format: cell-based
[18] = tested on: Pythium ultimum; assay: MIC in PD broth, 24-well plate; format: cell-based

Structure (SMILES): COCC(=O)N(c1c(C)cccc1C)C(C)C(=O)OC (racemic) [Metalaxyl, N-(2,6-dimethylphenyl)-N-(methoxyacetyl)-DL-alanine methyl ester, reference compound]
- MIC ([1]; Phytophthora cinnamomi, read-out: Metalaxyl MIC): 0.06 µg/mL (≈ 0.215 µM)
- MIC ([2]; Phytophthora nicotianae, read-out: Metalaxyl MIC): 0.06 µg/mL (≈ 0.215 µM)

Structure (SMILES): CC(=O)OC1CC(=O)O[C@H]2C[C@H](CC/C(Cl)=C\C/C=C\1C)O[C@H]2[C@@H](O)/C=C(\C)CC(=O)O (stereo partly shown) [oocydin A]
- Minimum inhibitory concentration (MIC) ([1]; P. cinnamomi): circa 0.03 μg ml^−1
- Oocydin MIC Test 1 ([1]; Phytophthora cinnamomi, Test 1): 0.03 µg/mL
- Oocydin MIC Test 2 ([1]; Phytophthora cinnamomi, Test 2): 0.02 µg/mL
- bioassay activity [3]: active
- effect on growth [4]: no effect
- effect on growth [5]: no effect
- IC50 [6]: 0.42 µg/mL (≈ 0.892 µM)
- effect on growth [7]: no effect
- Minimum inhibitory concentration (MIC) ([2]; Phytophthora parasitica): circa 0.03 μg ml^−1
- Oocydin MIC Test 1 ([2]; Phytophthora parasitica, Test 1): 0.03 µg/mL
- Oocydin MIC Test 2 ([2]; Phytophthora parasitica, Test 2): 0.05 µg/mL
- effect on growth [8]: no effect
- IC50 [9]: 0.6 µg/mL (≈ 1.27 µM)
- activity in plate tests [10]: no activity
- activity in plate tests [11]: no activity
- effect on growth [12]: no effect
- MIC [13]: approximately 0.03 μg ml^−1
- activity on PDA plates [14]: only slight inhibition of growth
- Minimum inhibitory concentration (MIC) ([15]; P. citrophora): circa 0.03 μg ml^−1
- Oocydin MIC Test 1 ([15]; Phytophthora citrophora, Test 1): 0.03 µg/mL
- Oocydin MIC Test 2 ([15]; Phytophthora citrophora, Test 2): 0.02 µg/mL
- activity on PDA plates [16]: inactive
- activity on PDA plates [17]: only slight inhibition of growth
- Oocydin MIC Test 1 ([18]; Test 1, no visible growth after 48 or 72 hr at 23° C.): 0.11 µg/mL
- Oocydin MIC Test 2 ([18]; Test 2, no visible growth after 48 or 72 hr at 23° C.): 0.39 µg/mL

Structure (SMILES): C/C=C1\NC(=O)[C@H]([C@H](C)O)NC(=O)[C@H](CCN)NC(=O)[C@H](CCCCN)NC(=O)[C@H](CC(=O)O)NC(=O)[C@@H](CCN)NC(=O)[C@@H](NC(=O)C[C@H](O)CCCCCCCCCCC)COC(=O)[C@H]([C@H](O)CCl)NC(=O)[C@H]([C@H](O)C(=O)O)NC1=O [pseudomycin B, reference compound] ({Tetradecanoyl(3R-OH)}-S[dDab]DK[Dab][aThr][Dhb][Asp(3S-OH)][Thr(4-Cl)]; ester 1-C; N-terminus assumed)
- MIC [4]: < 1.0 µg/mL
- MIC [5]: < 1.0 µg/mL
- MIC [7]: < 1.0 µg/mL
- MIC [12]: < 1.0 µg/mL
